Assay results taken from US20130165471A1, “2-SUBSTITUTED-THIENOQUINOLONES AND RELATED COMPOUNDS AS ANTI-INFECTIVE AGENTS” (Achillion Pharmaceuticals Inc., priority 2011, published 2013).
≈ marks a conversion by molar mass, not a printed value.

Assays:
S. aureus ATCC 29213 = test: Minimum inhibitory concentration (MIC) assay, MSSA; type: cell-based; conditions: Staphylococcus aureus, broth microdilution
Method: (§1) The preparation of compounds listed in Table I can be carried out under conditions analogous to those described in the examples above. Those of skill in the art will recognize routine changes in reaction conditions and starting materials needed to produce the listed compounds. For example, compound 5 in Table I, is prepared by the method shown above, except tert-butyl (1-(pyrrolidin-3-yl)ethyl)carbamate, prepared by the method shown in Schoeder, et al., J. Heterocyclic Chem., 29: 1481-1498 (1992), is used as the amine starting material. Compound activity was evaluated in a standard minimal inhibitory concentration assay such as the assay provided in Example 4. Compound cytotoxicity is determined using a standard assay of cytotoxicity such as the assay provided in Example 5. Compounds 10, 14, and 20 of Table I are provided as comparative examples.
(§2) The antimicrobial activity of the compounds of the invention may be evaluated by a number of methods, including the following visual minimum inhibitory concentration (MIC) assay. This assay determines the minimum concentration of compound required to inhibit growth of a bacterial strain.
(§3) Whole-cell antibacterial activity is determined by broth microdilution using conditions recommended by the NCCLS (see National Committee for Clinical Laboratory Standards. 2001. Performance standards for antimicrobial susceptibility testing: 11th informational supplement. Vol. 21, no. 1, M100-S11. National Committee for Clinical Laboratory Standards, Wayne, Pa.). Test compounds are dissolved in DMSO and diluted 1:50 in Mueller-Hinton II broth (Becton-Dickinson) to produce a 256 μg/ml stock solution. In a 96-well microtiter plate, the compound solution is serially two-fold diluted in Mueller-Hinton II broth. After the compounds are diluted, a 50 μl aliquot of the test organism (˜1×10^6 cfu/mL) is added to each well of the microtiter plate. The final test concentrations range from 0.125-128 μg/mL. Inoculated plates are incubated in ambient air at 37° C. for 18 to 24 hours. The organisms selected for testing included laboratory strains S. aureus ATCC 29213 and E. coli ATCC 25922 (strains purchased from American Type Culture Collection, Manassas, Va.) m, S. aureus FQR700699, and Paeruginosa 27853. The minimum inhibitory concentration (MIC) is determined as the lowest concentration of compound that inhibited visible growth of the test organism.

[1] = tested on: fluoroquinolone-resistant S. aureus ATCC 700699; test: Minimum inhibitory concentration (MIC) assay, MRSA; type: cell-based; conditions: Staphylococcus aureus, broth microdilution
Method: as §1, §2, §3

Hep2 = test: Cytotoxicity, cell viability staining with Alamar Blue; type: cell-based, human; set-up: unit not given here; conditions: Hep2 cells
Method: as §1
To determine whether the microcidal effect observed against S. aureus and E. coli is specific to bacterial cells, compounds are screened for cell viability effects on several human cell types.
Optimal cell density is first determined by plating cells in a 96-well plate standard sterile tissue culture plates in 100 μl media, 10% FBS at six cell densities from 500 cells/well to 15,000 cells/well. A cell free well containing only media is used as a control. Cells are incubated at 37° C. in a 5% CO2 incubator for 24 hours. 10% culture volume (10 ul) of Alamar Blue (Biosource, DAL1100, 100 mL) is then added. Cells are incubated at 37° C. in a 5% CO2 incubator and read in a Victor V plate reader, 544 nm excitation, 590 nm emission, at 3, 4, and 24 hours after the addition of Alamar Blue. The cell number vs. change in fluorescence is plotted to determine linearity of signal vs. cell number. The optimal density varies between 500-15,000 cells/well depending on the specific cell type. The optimal density is selected based on the highest number of cells that is still in the linear response range.
Cells are plated at optimal cell density in a standard sterile tissue culture 96 well plate, and incubated at 37° C., O/N in a 5% CO2 incubator. 12 to 48 hours post-plating media is removed. The cells are washed 1 or 2 times with 1×PBS and replaced with fresh media containing the test compound in 1% DMSO. 24 to 72 hours after addition of compound, the media is removed, and the cells washed 1 to 2 times with 1×PBS. Fresh media containing 1/10 volume of Alamar Blue is then added. Plates are incubated 4 hours at 37° C. in a 5% CO2 incubator and read in a Victor V plate reader, 544 nm excitation, 590 nm emission.
Compounds are diluted to 20 micromolar in 1% DMSO and media and screened in duplicate to obtain single concentration cytotoxicity data. Eight concentration points from 0.78 micromolar to 100 micromolar, run in duplicate, are used to determine cytotoxicity CC50 values. Cells with 1% DMSO and media are used as a negative control, compounds having a known CC50 against a particular cell type are used as positive controls.
The change in fluorescence vs. concentration of test compound is plotted to determine the cytotoxicity of the compound.

MIC (S. aureus ATCC 29213) [µg/mL] | MIC [1] [µg/mL] | Structure (SMILES) | Cytotoxicity Hep2 (Hep2)
0.5 (≈ 1.09 µM) | 2 (≈ 4.34 µM) | COc1c(N2CCCC(CN)C2)c(F)cc2c(=O)c3c(O)c(C(N)=O)sc3n(C3CC3)c12 (stereo not drawn) [Compound 5, 7-(3-(aminomethyl)piperidin-1-yl)-9-cyclopropyl-6-fluoro-3-hydroxy-8-methoxy-4-oxo-4,9-dihydrothieno[2,3-b]quinoline-2-carboxamide] | 30
0.25 (≈ 0.511 µM) | 0.5 (≈ 1.02 µM) | COc1c(N2CCCC(=C(F)CN)C2)c(F)cc2c(=O)c3c(O)c(C(C)=O)sc3n(C3CC3)c12 [Compound 6, 2-acetyl-7-(3-(2-amino-1-fluoroethylidene)piperidin-1-yl)-9-cyclopropyl-6-fluoro-3-hydroxy-8-methoxythieno [2,3-b]quinolin-4(9H)-one] | 
0.13 (≈ 0.301 µM) | 0.25 (≈ 0.579 µM) | COc1c(N2CC[C@H](N)C2)c(F)cc2c(=O)c3c(O)c(C(C)=O)sc3n(C3CC3)c12 [Compound 7, (S)-2-acetyl-7-(3-aminopyrrolidin-1-yl)-9-cyclopropyl-6-fluoro-3-hydroxy-8-methoxythieno [2,3-b]quinolin-4(9H)-one] | 35
0.03 (≈ 0.0653 µM) | 0.13 (≈ 0.283 µM) | COc1c(N2CC[C@@H]([C@H](C)N)C2)c(F)cc2c(=O)c3c(O)c(C(C)=O)sc3n(C3CC3)c12 [Compound 8, 2-acetyl-7-((R)-3-((S)-1-aminoethyl)pyrrolidin-1-yl)-9-cyclopropyl-6-fluoro-3-hydroxy-8-methoxythieno [2,3-b]quinolin-4(9H)-one] | 9
0.25 (≈ 0.544 µM) | 1 (≈ 2.18 µM) | COc1c(N2CCC(CN)CC2)c(F)cc2c(=O)c3c(O)c(C(C)=O)sc3n(C3CC3)c12 [Compound 9, 2-acetyl-7-(4-(aminomethyl)piperidin-1-yl)-9-cyclopropyl-6-fluoro-3-hydroxy-8-methoxythieno[2,3-b] quinolin-4(9H)-one] | 42
4 (≈ 9.91 µM) |  | COc1c(N2CC[C@@H](CN)C2)c(F)cc2c(=O)c3c(O)csc3n(C3CC3)c12 [Compound 10, (S)-7-(3-(aminomethyl)pyrrolidin-1-yl)-9-cyclopropyl-6-fluoro-3-hydroxy-8-methoxythieno[2,3-b] quinolin-4(9H)-one] | 24
0.13 (≈ 0.267 µM) | 0.5 (≈ 1.03 µM) | COc1c(N2CC[C@@H](CNC(C)=O)C2)c(F)cc2c(=O)c3c(O)c(C(C)=O)sc3n(C3CC3)c12 [Compound 11, (S)-N-((1-(2-acetyl-9-cyclopropyl-6-fluoro-3-hydroxy-8-methoxy-4-oxo-4,9-dihydrothieno [2,3-b]quinolin-7-yl)pyrrolidin-3-yl)methyl) acetamide] | 60
0.13 (≈ 0.292 µM) | 0.25 (≈ 0.561 µM) | COc1c(N2CC[C@H](CN)C2)c(F)cc2c(=O)c3c(O)c(C(C)=O)sc3n(C3CC3)c12 [Compound 13, (R)-2-acetyl-7-(3-(aminomethyl)pyrrolidin-1-yl)-9-cyclopropyl-6-fluoro-3-hydroxy-8-methoxythieno[2,3-b] quinolin-4(9H)-one] | 
32 (≈ 71.8 µM) | > 64 | COc1c(N2CC[C@@H](CNC(C)=O)C2)c(F)cc2c(=O)c3c(n(C4CC4)c12)SCC3=O [Compound 14, (S)-N-((1-(9-cyclopropyl-6-fluoro-8-methoxy-3,4-dioxo-2,3,4,9-tetrahydrothieno [2,3-b]quinolin-7-yl)pyrrolidin-3-yl)methyl) acetamide] | 
0.5 (≈ 0.995 µM) | 1 (≈ 1.99 µM) | COc1c(N2CC[C@@H](CNC(=O)CN)C2)c(F)cc2c(=O)c3c(O)c(C(C)=O)sc3n(C3CC3)c12 [Compound 15, (S)-N-((1-(2-acetyl-9-cyclopropyl-6-fluoro-3-hydroxy-8-methoxy-4-oxo-4,9-dihydrothieno [2,3-b]quinolin-7-yl)pyrrolidin-3-yl)methyl)-2-aminoacetamide] | 
32 (≈ 51.8 µM) | > 64 | COc1c(N2CC[C@@H](CNS(=O)(=O)c3cc(F)ccc3C)C2)c(F)cc2c(=O)c3c(O)c(C(C)=O)sc3n(C3CC3)c12 [Compound 16, (R)-N-((1-(2-acetyl-9-cyclopropyl-6-fluoro-3-hydroxy-8-methoxy-4-oxo-4,9-dihydrothieno [2,3-b]quinolin-7-yl)pyrrolidin-3-yl)methyl)-5-fluoro-2-methylbenzenesulfonamide] | 
> 64 | > 64 | COc1c(N2CC[C@@H](CNS(=O)(=O)c3cc(F)ccc3C)C2)c(F)cc2c(=O)c3c(OS(=O)(=O)c4cc(F)ccc4C)c(C(C)=O)sc3n(C3CC3)c12 [Compound 17, (R)-2-acetyl--cyclopropyl-6-fluoro-7-(3-((5-fluoro-2-methylphenylsulfonamido)methyl)pyrrolidin-1-yl)-8-methoxy-4-oxo-4,9-dihydrothieno[2,3-b] quinolin-3-yl 5-fluoro-2-methylbenzenesulfonate] | 
0.25 (≈ 0.528 µM) | 1 (≈ 2.11 µM) | COc1c(N2CC[C@H](NC(C)=O)C2)c(F)cc2c(=O)c3c(O)c(C(C)=O)sc3n(C3CC3)c12 [Compound 18, (S)-N-(1-(2-acetyl-9-cyclopropyl-6-fluoro-3-hydroxy-8-methoxy-4-oxo-4,9-dihydrothieno [2,3-b]quinolin-7-yl)pyrrolidin-3-yl)acetamide] | 
0.25 (≈ 0.498 µM) | 0.5 (≈ 0.997 µM) | COc1c(N2CC[C@@H]([C@H](C)NC(C)=O)C2)c(F)cc2c(=O)c3c(O)c(C(C)=O)sc3n(C3CC3)c12 [Compound 19, N-((S)-1-((R)-1-(2-acetyl-9-cyclopropyl-6-fluoro-3-hydroxy-8-methoxy-4-oxo-4,9-dihydrothieno[2,3-b]quinolin-7-yl)pyrrolidin-3-yl)ethyl) acetamide] | 
4 (≈ 9.58 µM) | 16 (≈ 38.3 µM) | COc1c(N2CC[C@@H]([C@H](C)N)C2)c(F)cc2c(=O)c3c(n(C4CC4)c12)SCC3=O [Compound 20, 7-((R)-3-((S)-1-aminoethyl)pyrrolidin-1-yl)-9-cyclopropyl-6-fluoro-8-methoxythieno[2,3-b] quinoline-3,4(2H,9H)-dione] | 
0.13 (≈ 0.283 µM) | 1 (≈ 2.18 µM) | COc1c(N2CC[C@@H]([C@@H](C)N)C2)c(F)cc2c(=O)c3c(O)c(C(C)=O)sc3n(C3CC3)c12 [Compound 21, 2-acetyl-7-((R)-3-((R)-1-aminoethyl)pyrrolidin-1-yl)-9-cyclopropyl-6-fluoro-3-hydroxy-8-methoxythieno[2,3-b] quinolin-4(9H)-one] | 
> 64 | > 64 | COc1c(N2CC[C@@H]([C@H](C)NC(=O)OC(C)(C)C)C2)c(F)cc2c(=O)c3c(O)c(C(C)=O)sc3n(C3CC3)c12 [Compound 22, tert-butyl ((S)-1-((R)-1-(2-acetyl-9-cyclopropyl-6-fluoro-3-hydroxy-8-methoxy-4-oxo-4,9-dihydrothieno[2,3-b]quinolin-7-yl)pyrrolidin-3-yl)ethyl)carbamate] | 
